Test results as given in patent US7407775B2, “Method for identifying Listeria monocytogenes and culture medium” (Biomerieux S.A., priority 2000, dated 2008).

Assays:
Experiment in all cases: Experiment 1: esterase substrates, same chromogenic marker, fatty acids of different chain lengths
Assay type in all cases: cell-based
Parameters in all cases: key: —: the symbol “-” corresponds to the absence of color or intensity; 0 corresponds to no activity; 0.1 corresponds to a trace of color; 0.5 corresponds to very pale coloration; 1 corresponds to clear but low-intensity coloration; 1.5 corresponds to a degree of coloration intermediate between scores 1 and 2; 2 corresponds to clear coloration of moderate intensity; 2.5 corresponds to a degree of coloration intermediate between scores 2 and 3; 3 corresponds to intense coloration; 3.5 corresponds to a degree of coloration intermediate between scores 3 and 4; 4 corresponds to very intense coloration
Settings in all cases: 37° C., substrate 250 mg/l
[1] = system: Listeria seeligeri 011
Experimental: (§1) A stock solution of each substrate at a concentration of 40 g/l was made up in a mixture of 40% Dimethylsulfoxide and 60% Polyoxyethylenesorbitan Monolaurate (Tween 20). An appropriate volume was added to three Columbia-type media while cooling to give a final substrate concentration of 250 mg/l. These dishes were divided into three areas and then each area was inoculated with a suspension (density=0.5 McFarland) of microorganisms taken from either the Applicant's own collection or the ATCC. The dishes were incubated for 48 hours at 37° C. The colonies which grew were examined by eye after 24 and 48 hours of incubation. Both the color and the intensity of the color of the colonies were recorded.
(§2) In Table 1 above, as in the following Tables, C represents the color of the colonies after incubation, I represents the intensity of the color, and the symbol “-” corresponds to the absence of color or intensity; finally, IT defines the incubation time. It should be noted that the intensity of the color is scored on an arbitrary scale but one which is consistent for all the biological specimens and media tested. This scale is valid for this experiment as well as all those that follow. It can be defined in the following way: • 0 corresponds to no activity, • 0.1 corresponds to a trace of color, • 0.5 corresponds to very pale coloration, • 1 corresponds to clear but low-intensity coloration, • 1.5 corresponds to a degree of coloration intermediate between scores 1 and 2, • 2 corresponds to clear coloration of moderate intensity, • 2.5 corresponds to a degree of coloration intermediate between scores 2 and 3, • 3 corresponds to intense coloration, • 3.5 corresponds to a degree of coloration intermediate between scores 3 and 4, • 4 corresponds to very intense coloration.

[2] = system: Listeria grayi ATCC 19120
Experimental: as §1, §2

[3] = system: Listeria innocua 166
Experimental: as §1, §2

[4] = system: Listeria ivanovii 018
Experimental: as §1, §2

[5] = system: Listeria innocua ATCC 33090
Experimental: as §1, §2

[6] = system: Listeria welshimeri 078
Experimental: as §1, §2

[7] = system: Listeria innocua 171
Experimental: as §1, §2

## CCCCCCCC(=O)Oc1c[nH]c2ccc(Br)cc12 [Blue-C8, 5-Bromo-3-indolyl octanoate]
[1]; IT 24 h
  C (color of the colonies): —
  I (intensity of the color): —
[1]; IT 48 h
  C (color of the colonies): gray
  I (intensity of the color): 0.5
[2]; IT 24 h
  C (color of the colonies): —
  I (intensity of the color): —
[2]; IT 48 h
  C (color of the colonies): —
  I (intensity of the color): —
[3]; IT 24 h
  C (color of the colonies): gray
  I (intensity of the color): 0.3
[3]; IT 48 h
  C (color of the colonies): gray
  I (intensity of the color): 1
[4]; IT 24 h
  C (color of the colonies): —
  I (intensity of the color): —
[4]; IT 48 h
  C (color of the colonies): —
  I (intensity of the color): —
[5]; IT 24 h
  C (color of the colonies): gray
  I (intensity of the color): 0.3
[5]; IT 48 h
  C (color of the colonies): gray
  I (intensity of the color): 0.5
[6]; IT 24 h
  C (color of the colonies): gray
  I (intensity of the color): 0.5
[6]; IT 48 h
  C (color of the colonies): gray
  I (intensity of the color): 1
[7]; IT 24 h
  C (color of the colonies): —
  I (intensity of the color): —
[7]; IT 48 h
  C (color of the colonies): gray
  I (intensity of the color): 0.3

## CCCCCCCCC(=O)Oc1c[nH]c2ccc(Br)cc12 [Blue-C9, 5-Bromo-3-indolyl nonanoate]
[1]; IT 24 h
  C (color of the colonies): —
  I (intensity of the color): —
[1]; IT 48 h
  C (color of the colonies): gray
  I (intensity of the color): 0.5
[2]; IT 24 h
  C (color of the colonies): —
  I (intensity of the color): —
[2]; IT 48 h
  C (color of the colonies): —
  I (intensity of the color): —
[3]; IT 24 h
  C (color of the colonies): —
  I (intensity of the color): —
[3]; IT 48 h
  C (color of the colonies): gray
  I (intensity of the color): 0.5
[4]; IT 24 h
  C (color of the colonies): —
  I (intensity of the color): —
[4]; IT 48 h
  C (color of the colonies): —
  I (intensity of the color): —
[5]; IT 24 h
  C (color of the colonies): —
  I (intensity of the color): —
[5]; IT 48 h
  C (color of the colonies): gray
  I (intensity of the color): 0.3
[6]; IT 24 h
  C (color of the colonies): gray
  I (intensity of the color): 0.5
[6]; IT 48 h
  C (color of the colonies): gray
  I (intensity of the color): 1
[7]; IT 24 h
  C (color of the colonies): —
  I (intensity of the color): —
[7]; IT 48 h
  C (color of the colonies): gray
  I (intensity of the color): 0.3

## CCCCCCCCCC(=O)Oc1c[nH]c2ccc(Br)cc12 [Blue-C10, 5-Bromo-3-indolyl decanoate]
[1]; IT 24 h
  C (color of the colonies): —
  I (intensity of the color): —
[1]; IT 48 h
  C (color of the colonies): gray
  I (intensity of the color): 0.5
[2]; IT 24 h
  C (color of the colonies): —
  I (intensity of the color): —
[2]; IT 48 h
  C (color of the colonies): —
  I (intensity of the color): —
[3]; IT 24 h
  C (color of the colonies): —
  I (intensity of the color): —
[3]; IT 48 h
  C (color of the colonies): gray
  I (intensity of the color): 0.5
[4]; IT 24 h
  C (color of the colonies): —
  I (intensity of the color): —
[4]; IT 48 h
  C (color of the colonies): —
  I (intensity of the color): —
[5]; IT 24 h
  C (color of the colonies): —
  I (intensity of the color): —
[5]; IT 48 h
  C (color of the colonies): gray
  I (intensity of the color): 0.3
[6]; IT 24 h
  C (color of the colonies): —
  I (intensity of the color): —
[6]; IT 48 h
  C (color of the colonies): gray
  I (intensity of the color): 0.5
[7]; IT 24 h
  C (color of the colonies): —
  I (intensity of the color): —
[7]; IT 48 h
  C (color of the colonies): gray
  I (intensity of the color): 0.3
